The nature of the data set: gradient 5% acetonitrile 3 min, to 50% in 2 min, to 85% in 15 min, held 3 min, 100 µL/min. Conditions: column: Zorbax Extend-C18 2.1 x 50 mm; eluents: water / acetonitrile, 0.1% formic acid. In short, it runs like this: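 Data were gathered over 3 months by HPLC coupled to a quadrupole time-of-flight mass spectrometer, operated in positive and negative ionization mode. Mixtures of ~100 pure standards ran on a Zorbax Extend-C18 column (2.1 × 50 mm, 1.8 μm) at 100 μL/min, with water and acetonitrile each containing 0.1% formic acid and dead and dwell volumes of 40 μL and 900 μL. Retention time was read from adduct peaks picked by computer and checked manually.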
For the molecule `CC(C)CC(=O)N1CCCCCCNC(=O)[C@@H]2CCCC[C@@H]21`, the RP-LC retention time was found to be 833 s.
`COc1ccc(C(=O)N2CC(n3cc(COCC4CC4)nn3)C2)cn1` came in with an RP-LC retention time of 679 s.
With `COc1ccc(C2CC(=O)N(c3cccc(Cl)c3)C(=O)C2)cc1OC` the figure was 881 s; with `CC1CCN(S(=O)(=O)c2ccc3nn(CC(=O)OC(C)C)c(=O)n3c2)CC1`, 929 s; with `O=C(CN1c2ccc(Br)cc2-c2ccccc2S1(=O)=O)NCc1cccnc1`, 686 s.
Consider `COc1ccc(S(=O)(=O)N2[C@H]3CC[C@@H]2c2cnc(-c4ccccc4)nc2C3)cc1`, for which the RP-LC retention time worked out at 1030 s.
On to `Cc1ccc(CN2CC(c3ncc(C)n3Cc3cccnc3)C2)s1`, for which the RP-LC retention time was 683 s.
With `CCN1CCN(c2ncc3c(n2)CCN(Cc2ccc(Cl)c(F)c2)C3)CC1` the figure was 575 s; with `Cc1ccccc1-c1nnc(COc2ccc(NC(=O)c3cncc(Br)c3)cc2)o1`, 968 s.
With `Fc1ccc(C2CCNCC2COc2ccc3c(c2)OCO3)cc1` (stereo unspecified) the figure was 778 s; with `CCc1nc(N)n(CC(=O)Nc2cccc(C)c2C)c(=O)c1C`, 638 s.
The molecule `CCN1CCCn2cc(S(=O)(=O)NCc3cccc(F)c3)cc2C1=O` registered an RP-LC retention time of 754 s.
With `COC(=O)Cn1nc2ccc(S(=O)(=O)N3CCC(C)CC3)cn2c1=O`, the RP-LC retention time amounted to 819 s.
The value for `COc1cccc(-c2cc(=O)n3c4ccccc4n(CC(=O)NC(C)C)c3n2)c1` was 858 s.
The value for `COC(=O)c1ccc(NC(=O)C(=O)NCC2CCN(Cc3cccs3)CC2)cc1` was 567 s; that for `O=C(c1cc(C2CC2)n(CC(=O)N(Cc2ccccc2)c2ccccn2)n1)N1CCOCC1` was 687 s.
With `CCOc1ccccc1NC(=O)N1CCC2(CC1)N=C(c1cccc(F)c1)C(=O)N2` the figure was 902 s.
`CCN1C(=O)COc2ccc(-c3noc(-c4ccc(CS(=O)(=O)c5ccccc5)cc4)n3)cc21` came in with an RP-LC retention time of 1060 s.
The value for `CC(C)CN1CCCCc2cc(C(N)=O)sc21` was 829 s; that for `O=C(Cn1nc2n(c1=O)CCCC2)NCc1ccccc1Cl` was 669 s; that for `COc1ccc(OCc2noc(CNC(=O)CSc3nnnn3C)n2)cc1` was 658 s.
The value for `COCC(=O)N(C1CCOCC1)C1CCN(S(=O)(=O)c2cccc(C)c2)CC1` was 762 s.
Regarding `O=C(CSCc1ccccc1)Nc1c(-c2ccc(F)cc2)nc2ccccn12`, the RP-LC retention time stood at 714 s.
In turn, `O=S(=O)(Cc1ccccc1F)N1CCC[C@H]1c1nc(-c2ccc(F)cc2)n[nH]1` registered an RP-LC retention time of 837 s.
The value for `Cc1nn(CC(=O)N2CCC(C)CC2)c(=O)c2nc(-c3ccccc3)sc12` was 872 s; that for `Cc1ccc(NC(=O)Nc2ccccc2)c(=O)n1CC(=O)NCC1CCCO1` (stereo unspecified) was 697 s.
The value for `CCOC(=O)c1noc2nc(C)nc(N3CCN(Cc4ccccc4)CC3)c12` was 616 s; that for `CCc1cc(=O)n(CC(=O)Nc2ccc(Br)cc2F)c(N2CCOCC2)n1` was 853 s.
With `COc1ccc(S(=O)(=O)c2ccc(NCc3cccc(OC)c3)nn2)cc1` the figure was 860 s; with `CC(=O)N1CCc2cc(CNS(=O)(=O)c3ccc(F)cc3)ccc21`, 738 s; with `COc1ccc(NC(=O)c2noc3c2CC(C)CC3)c(OC)c1` (stereo unspecified), 1170 s.
The molecule `O=C(CSc1nccn1-c1cccc(Cl)c1)Nc1ccccc1C(F)(F)F` showed an RP-LC retention time of 591 s.
The value for `O=C(Nc1ccc2c(c1)OCCO2)N1CCC(Cc2nncn2-c2ccccc2)CC1` was 706 s.
The value for `O=C(NC1CC1)c1ccc(N2CCC(NCc3ccc(Cl)cc3)C2)nc1` (stereo unspecified) was 574 s; that for `CC(=O)N1CCc2cc(N3CC(C(=O)NCc4ccco4)CC3=O)ccc21` (stereo unspecified) was 640 s.
With `CCOC[C@@H]1CC(F)(F)CN1C1CCN(Cc2ccc3cc[nH]c3c2)CC1` the figure was 656 s; with `COCCCNC(=O)N1CCC(C)(c2noc(C3CCOCC3)n2)CC1`, 654 s.
`COC(=O)c1ccc(NC(=O)Cn2nc3nc(N4CCCC(C)C4)ccn3c2=O)cc1` (stereo unspecified) displayed an RP-LC retention time of 774 s.
The value for `CC(C)c1nc(-n2cccc2)sc1C(=O)NC1CC1` was 985 s.
With `O=C(c1ccc(S(=O)(=O)c2ccc(Cl)cc2)s1)N1CCN(c2ccccn2)CC1` the figure was 702 s.
With `CCOC(=O)CNC(=O)Cn1c(-c2cccnc2)nc2ccccc21` the figure was 608 s.
Molecule `COc1cccc(-c2nnc(-c3ccc(-n4ccnc4)nc3)o2)c1` yielded an RP-LC retention time of 654 s.
`Cn1c(CCNC(=O)c2cccc(C#N)c2)nc2cccnc21` displayed an RP-LC retention time of 601 s.
In turn, `COc1ccc(C)cc1NC(=O)Cn1nc2cc(C)nc(-c3ccc(F)cc3)n2c1=O` yielded an RP-LC retention time of 912 s.
With `CCCCNc1onc(-c2ccc(F)cc2)c1C(=O)OC` the figure was 1130 s.
The value for `O=C(Cc1nnc(-c2ccc3ncccc3c2)o1)NC1CCCCCC1` was 807 s.
With `O=C(NCc1cccnc1)c1ccc2c(c1)NC(=O)C1CCCCN21` (stereo unspecified), the RP-LC retention time was found to be 585 s.
The value for `O=C(C1=NN(Cc2ccccc2)c2cc(Cl)ccc2S1(=O)=O)N1CCOCC1` was 864 s; that for `CCCNC(=O)C1CCCN(c2ccc(SCC(=O)Nc3c(C)cccc3CC)nn2)C1` (stereo unspecified) was 650 s; that for `CCCOc1ccc(C2C(=O)N(C3CCC(C)CC3)CC(=O)N2Cc2ccco2)cc1OC` (stereo unspecified) was 1070 s.
The value for `CN(c1nc(-c2ccc(C(C)(C)C)cc2)nc2ccccc12)C1CCCCC1` was 1130 s; that for `COc1cccc(Cn2nc3c(S(=O)(=O)N4CCCCCC4)cccn3c2=O)c1` was 918 s.
The molecule `COc1ccccc1Cc1nc(C2CC(=O)N(c3ccc(F)c(Cl)c3)C2)no1` (stereo unspecified) returned an RP-LC retention time of 1020 s.
For the molecule `CCCSc1nc2c(c(=O)n(C)c(=O)n2C)n1C`, the RP-LC retention time turned out to be 837 s.
The value for `O=C(COc1ccc(-c2cnc3ccccc3n2)cc1)Nc1ccccn1` was 852 s.
With `CC1CCc2nc3ncn(CC(=O)NC(C)c4ccccc4)c(=O)c3cc2C1` (stereo unspecified) the figure was 762 s; with `O=C(Cn1cccc1-c1nc(-c2ccc3c(c2)OCO3)no1)N1CCN(c2ccccc2)CC1`, 1070 s.
With `O=C(NC1CCN(c2cc(-c3cccs3)[nH]n2)C1)c1ccc(Cl)cc1` (stereo unspecified) the figure was 776 s; with `CO[C@H]1CN(C2CCN(S(=O)(=O)c3cccc4cccnc34)CC2)[C@H]1c1cccnc1`, 605 s; with `Cc1cccc(-c2ncccc2CNS(=O)(=O)c2cc(F)ccc2F)c1`, 738 s.
For `O=c1ccc(S(=O)(=O)N2CCOCC2)cn1Cc1cccc(F)c1`, the RP-LC retention time was 755 s.
With `O=c1ccc(-c2ccccc2)nn1CCc1nc(-c2ccncc2)no1` the figure was 727 s.
With `Cc1cc2nn(CC(=O)Nc3ccc(F)cc3)c(=O)n2c(N2CCCC2)n1` the figure was 739 s; with `Cc1onc(-c2ccc(Br)cc2)c1C(=O)NCc1cccs1`, 988 s.
The value for `CCN1CCN(CC2CCN(S(=O)(=O)Cc3ccc(Cl)cc3)CC2)CC1` was 610 s.
In turn, `Cc1ccc2nc(C(=O)NCc3cccc(F)c3)cn2c1` registered an RP-LC retention time of 689 s.
The value for `COC(=O)c1sccc1S(=O)(=O)N1CCN(S(=O)(=O)C2CC2)CC1` was 717 s; that for `CCC(c1cccs1)N1C(=O)[C@H]2CN(S(=O)(=O)c3cc(F)cc(F)c3)C[C@H]2C1=O` (stereo partly specified) was 1040 s.
In turn, `CCn1cc(C2=CCN(S(=O)(=O)c3ccc(OC)cc3)CC2)c2cccnc21` yielded an RP-LC retention time of 986 s.
With `COCc1cn(C2CN(C(=O)c3cnc(C)cn3)C2)nn1` the figure was 592 s; with `CCC1CCCCN1CCCNC(=O)C1CCN(c2ccc(N3CCCCC3)nn2)CC1` (stereo unspecified), 561 s; with `CCCCN1CCN(c2ccc(-c3csc(S(=O)(=O)N4CCCCC4)c3)nn2)CC1`, 686 s.
With `CCCc1cc(N2CCN(C(=O)c3ccc4c(c3)OCO4)CC2)nc2nnc(C)n12` the figure was 624 s; with `Cc1cccc(NC(=O)N2CCN(Cc3cn(C)c4ccccc34)CC2)c1`, 681 s; with `CN(CCO)c1cc(N2CCN(c3ccccn3)CC2)c2noc3c2c1C(=O)c1ccccc1-3`, 614 s.
With `CC(=O)N1CCCN(C2=NS(=O)(=O)C(c3ccccc3)=C2C)CC1` the figure was 665 s; with `CCCCn1c(=O)c2ccccc2n(Cc2nc(-c3ccc(CC)cc3)no2)c1=O`, 1310 s.
As to `Cc1ccc(CNC(=O)C2CCN(S(=O)(=O)c3cc(-c4noc(C)n4)cs3)CC2)cc1`, the RP-LC retention time worked out at 702 s.
The value for `N#Cc1cc2c(nc1SCC(=O)Nc1nccs1)CCCCC2` was 871 s.
With `COc1ccc2nc(C(=O)NCc3cccc(Cl)c3)cn2n1` the figure was 846 s; with `O=C(CCc1ccc2nc(-c3ccccc3)[nH]c2c1)NC1CCCC1`, 618 s.

For the origin of these results see the METLIN SMRT retention time set (Domingo-Almenara et al. 2019).
